Laboratory results published in patent US11591315B2, “Substituted pyrazole-pyrimidines, variants thereof, and uses therefore” (Afferent Pharmaceuticals, Inc., priority 2016, dated 2023).

Columns and labels:
human P2X3 receptor = molecular target: T1, human P2X3 receptor (Homo sapiens, UniProt P56373); assay: FlexStation calcium fluorescence assay, HEK293 cells stably transfected with human P2X3 (homomeric P2X3 channels); format: cell-based; details: HEK-hP2X3 cells, Calcium 6 dye, agonist 1 μM α,β-meATP, 20 minutes incubation; read-out: Average pIC50 P2X3 (converted)
T1 construct: expressed in transfected cells; host or cells: HEK293 human embryonic kidney cells (HEK-hP2X3)
T1 sequence (P56373 1-397): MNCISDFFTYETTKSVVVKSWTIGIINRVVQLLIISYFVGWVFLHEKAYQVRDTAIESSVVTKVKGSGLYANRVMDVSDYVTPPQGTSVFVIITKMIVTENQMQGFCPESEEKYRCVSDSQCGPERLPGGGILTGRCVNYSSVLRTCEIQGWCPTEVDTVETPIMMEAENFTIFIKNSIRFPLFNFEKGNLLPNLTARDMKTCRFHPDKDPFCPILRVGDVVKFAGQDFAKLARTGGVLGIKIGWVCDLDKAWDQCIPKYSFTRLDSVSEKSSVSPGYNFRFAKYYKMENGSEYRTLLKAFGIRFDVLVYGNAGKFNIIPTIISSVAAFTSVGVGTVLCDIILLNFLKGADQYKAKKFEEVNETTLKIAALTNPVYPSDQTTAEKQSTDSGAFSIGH
Experimental: (§1) 1321N1 human astrocytoma and HEK293 human embryonic kidney cells were stably transfected with human P2X2 and P2X3 receptor subunits to form heteromeric P2X2/3 channels and passaged in flasks. Additionally, HEK293 cells were stably transfected with human P2X3 receptor subunits to form homomeric P2X3 channels.
(§2) Approximately 24 hours before the FlexStation calcium fluorescence experiment, cells were released from their flasks, centrifuged and re-suspended in nutrient medium. The cells were aliquoted into black-wall, clear-bottom 96 well plates at a density of 25,000 cells per well and incubated overnight in a humidified, CO2-enriched (5%) atmosphere at 37° C. […]
(§3) After 20 minutes incubation at room temperature and protected from light, the assay plates were loaded into the FlexStation microplate reader and baseline fluorescence measured with an excitation wavelength of 485 nm and emission wavelength readings centered at 525 nm (515 nm cut off).
(§4) The agonist was dispensed by the FlexStation during fluorescence measurement to construct agonist activation and antagonist inhibition curves. […] Peak fluorescence was measured and curves generated using a four parameter nonlinear regression equation. […]

human P2X2/3 channels = molecular target: T2, human P2X2/3 channels (Homo sapiens, UniProt P56373+Q9UBL9); assay: FlexStation calcium fluorescence assay, 1321N1 cells stably transfected with human P2X2 and P2X3 (heteromeric P2X2/3 channels); format: cell-based; details: 1321N1-hP2X2/3 cells, Fluo-4 dye, agonist ATP, 20 minutes incubation; read-out: Average pIC50 P2X2/3 (converted)
T2 construct: expressed in transfected cells; host or cells: 1321N1 human astrocytoma cells (1321N1-hP2X2/3)
T2 sequence (P56373 1-397): T1 sequence (P56373 1-397)
T2 sequence (Q9UBL9 1-471): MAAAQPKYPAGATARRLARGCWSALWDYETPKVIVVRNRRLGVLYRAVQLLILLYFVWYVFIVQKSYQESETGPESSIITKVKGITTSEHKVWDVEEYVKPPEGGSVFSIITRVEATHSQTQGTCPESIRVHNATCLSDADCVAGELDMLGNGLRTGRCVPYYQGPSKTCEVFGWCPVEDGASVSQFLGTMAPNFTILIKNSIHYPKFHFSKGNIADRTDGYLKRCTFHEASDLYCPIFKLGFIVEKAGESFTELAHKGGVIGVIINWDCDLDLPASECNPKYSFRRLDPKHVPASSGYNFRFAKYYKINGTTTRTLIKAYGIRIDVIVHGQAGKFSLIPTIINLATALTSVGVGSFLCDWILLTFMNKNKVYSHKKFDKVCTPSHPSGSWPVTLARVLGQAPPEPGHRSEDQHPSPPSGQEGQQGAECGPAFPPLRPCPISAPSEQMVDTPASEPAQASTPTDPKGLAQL
Experimental: as §1, §2, §3, §4

Row | IC50 (human P2X3 receptor) [nM] | IC50 (human P2X2/3 channels) [nM] | SMILES
1 | 6920 | > 10000 | CCOc1cc(Oc2cnc(N)nc2N)n(C(C)C)n1 [Compound 1]
2 | 288 | 1950 | COc1cc(Oc2cnc(N)nc2N)n(C(C)C)n1 [Compound 2]
